Common to all, as to assay: NCI-60 cell line screen, 48 h
Experiment [1] relates to NCI-H460.
Experiment [2] relates to OVCAR-8.
Experiment [3] deals with MDA-N.
Experiment [4] concerns Hs-578T.
The subject of experiment [5] is SF-268.
Experiment [6] concerns COLO 205.
The subject of experiment [7] is K562.
Experiment [8] deals with UACC-62.
Experiment [9] relates to SN12C.
The subject of experiment [10] is UACC-257.
For experiment [11], the system named is KM12.
The test system of experiment [12] is IGROV-1.
Experiment [13] relates to 786-0.
Experiment [14] has as its system HCC 2998.
Experiment [15] relates to MOLT-4.
Experiment [16] has as its system T47D.
Experiment [17] has as its system OVCAR-4.
Experiment [18] has as its system RPMI-8226.
In experiment [19] the test system is HCT-116.
Experiment [20] concerns OVCAR-5.

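Interpolation was linear, between the two tested concentrations surrounding the appropriate level; five concentrations were tested over 48 hours in 96-well plates. Abbreviation: GI50, concentration required for 50% inhibition of growth.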 The source made the active and inactive calls. Cut-off read from the data, not from the text of the source: active = GI50 up to about 1.1 µM and inactive = higher.

Consider `COC1=CC(=O)c2c(c(-c3nc(C)cs3)cn2C)C1=O`, for which the GI50 was 1.25 µM (inactive) in experiment [1]; 4.56 µM (inactive) in experiment [2]; 0.931 µM (active) in experiment [3]; 2.21 µM (inactive) in experiment [4]; 6.44 µM (inactive) in experiment [5]; 12.4 µM (inactive) in experiment [6]. In addition, the GI50 in experiment [7] was 2.62 µM (inactive); in experiment [8], 2.99 µM (inactive); in [9], 5.79 µM (inactive); in [10], 1.82 µM (inactive); in [11], 3.95 µM (inactive); in [12], 4.29 µM (inactive). Besides, the GI50 in experiment [13] is 18.1 µM (inactive); in experiment [14] it was 4.28 µM (inactive); in experiment [15] it was 15.2 µM (inactive); in [16] it was 20.1 µM (inactive); in experiment [17], 18.5 µM (inactive); in [18], 2.52 µM (inactive). Besides, the GI50 was 2.99 µM (inactive) in experiment [19] and 6.76 µM (inactive) in experiment [20].
As for `CC[C@H]1C=CCC[C@@]2(C[C@@H]3CC[C@@H]4[C@H](C(=O)OCCCCCCCCCCCCCCCC(=O)O)[C@]5(CCC[C@@H](C)O5)NC(=[N+]34)N2)O1` [CRAMBESCIDIN 657], the GI50 is 0.188 µM (active) in [1]; 0.23 µM (active) in experiment [2]; 0.189 µM (active) in experiment [3]; 0.571 µM (active) in experiment [4]; 0.367 µM (active) in [5]; 0.139 µM (active) in experiment [6]. For the same molecule, the GI50 is 0.121 µM (active) in experiment [7]; 0.0927 µM (active) in experiment [8]; 0.418 µM (active) in experiment [9]; 0.12 µM (active) in experiment [10]; 0.207 µM (active) in experiment [11]; 0.193 µM (active) in experiment [12]. Moreover, the GI50 in experiment [13] was 0.0964 µM (active); in [14], 0.0973 µM (active); in experiment [15] it was 0.109 µM (active); in experiment [16], 0.32 µM (active); in experiment [17] it was 0.157 µM (active); in [18], 0.109 µM (active). The GI50 in [19] was 0.169 µM (active); in [20], 0.221 µM (active).

For the origin of these results see ChEMBL document CHEMBL1201862, “PubChem BioAssay data set” (2004).
